For one assay, the system named is MCF7. Briefly: Antiproliferative activity against human MCF7 cells after 48 hrs by MTT assay. It counts as functional, cell-based. Particulars: MCF7, 48 h. In general terms: Tetrazolium dyes change colour on reduction, which living cells bring about.
The next assay concerns A549. Briefly: Antiproliferative activity against human A549 cells after 48 hrs by MTT assay. It counts as functional, cell-based. The note with it: A549, 48 h.

Usually IC50 stands for the point on the concentration scale where inhibition reaches its midpoint. Low values mean inhibition by little substance, high ones a need for much substance.

For `COc1ccc(C2C3CCc4ccc(OC)cc4C3=NN2c2nc3nc4ccccc4nc3s2)cc1` (centres undefined), the IC50 in the assay on MCF7 is 1.91 µM; with A549, 3.04 µM.

For the molecule `C#Cc1cccc(Nc2ncnc3cc(OCCOC)c(OCCOC)cc23)c1` [ERLOTINIB], the IC50 with MCF7 was found to be 2.32 µM; in the assay on A549, 4.28 µM.
